Assay results taken from publication PMC11868595, “Safety, pharmacokinetics and efficacy of HA121-28 in patients with advanced solid tumors and RET fusion-positive non-small-cell lung cancer: a multicenter, open-label, single-arm phase 1/2 trial” (Signal Transduction and Targeted Therapy, 2025).

Test system: patients with RET fusion-positive NSCLC
Experiment: Phase 2 trial: adverse events (CTCAE)
Format: in vivo, human
From the text: The phase 2 trial was still ongoing. It was a single-arm, multicenter, open-label, nonrandomized study to assess the efficacy and safety of HA121-28 in RET-fusion-positive NSCLC.
Patients aged 18–75 years (inclusive) who had unresectable locally advanced or metastatic NSCLC through histologically or cytologically examination were enrolled. Patients were also required to have documented RET fusions centrally examined by next-generation sequencing in certified laboratories but without other oncogenic alterations. Had progression on at least one previous line of standard treatment but have no previous use of other anti-RET inhibitors. The complete lists of inclusion and exclusion criteria of phase 1 and phase 2 are provided in both protocols (in Supplement).
In phase 1 trial, during the dose-escalation part, patients first administered HA121-28 in a single ascending dose under the fasted state, then followed up for seven days. Then, patients received ascending doses of HA121-28 (q.d.) on a 21-day on and 7-day off treatment scheme for a 28-day cycle. For patients deemed beneficial from the treatment by investigators, treatment could remain until disease progression, or they discontinued from the study. In the dose-expansion part of phase 1, as well as phase 2, patients received HA121-28 (q.d.) at the selected doses on a 21-day on and 7-day off treatment scheme until disease progression, or they discontinued from the study.
Treatment-emergent adverse events (TEAEs) were documented during the entire study period. The predefined adverse event of special interest (AESI) was ≥ grade 3 prolonged QT interval. Tumor imaging was performed using contrast-enhanced computed tomography or magnetic resonance imaging at screening, Day 28 of the first cycle, then approximately every eight weeks till the end of the study for phase 1; in phase 2, imaging was scheduled at screening, and every eight weeks during the first 40 weeks, followed by every 12 weeks for the rest of the study period. RECIST 1.1 was used by the independent review committee or investigators for assessment of tumor response. After the original assessment, a repeated assessment was required around four weeks later to confirm a complete or partial response.
The primary endpoint of phase 2 was the independent review committee evaluated ORR using RECIST 1.1. The secondary endpoints included investigators assessed ORR; DCR, PFS, and DOR by the independent review committee and investigators; overall survival and TEAEs. Each TEAE was graded according to CTCAE version 5.0 and coded by MedDRA (version 24.0). The phase 2 trial is ongoing; not all endpoints are reported in this paper.

[1] = Phase 2 study, patient 3 with Grade 3 QTc prolongation
[2] = Phase 2 study, patient 4 with Grade 3 QTc prolongation
[3] = Phase 2 study, patient 5 with Grade 3 QTc prolongation
[4] = Phase 2 study, patient 7 with Grade 3 QTc prolongation
[5] = Phase 2 study, patient 8 with Grade 3 QTc prolongation

COc1cc2c(Nc3ccc(Br)cc3F)ncnc2cc1OCCCCN(C)C.Cl.Cl [HA121-28, N-(4-bromo-2-fluorophenyl)-7-(4-(dimethylamino)butoxy)-6-methoxy quinazolin-4-amine dihydrochloride]
14.6%: ≥ grade-3 prolonged QT interval with dose interruption (phase 2)
18.8%: grade ≥ 3 TEAE hypertension (phase 2) | patients with treatment-related SAE (phase 2)
31.3%: grade ≥ 3 TEAE prolonged QT interval (phase 2)
62.5%: patients with grade ≥3 TRAEs (phase 2)
1 (2.1) No. (%): Serious TEAE: Pneumonia (Phase 2, 450 mg (N=48)) | Serious TEAE: Pneumonitis (Phase 2, 450 mg (N=48)) | Serious TEAE: Pulmonary embolism (Phase 2, 450 mg (N=48)) | Serious TEAE: Pyrexia (Phase 2, 450 mg (N=48)) | Serious TEAE: Respiratory failure (Phase 2, 450 mg (N=48)) | Serious TEAE: Septic shock (Phase 2, 450 mg (N=48)) | Serious TRAE: ALT increased (Phase 2, 450 mg (N=48)) | Serious TRAE: AST increased (Phase 2, 450 mg (N=48)) | Serious TRAE: Abdominal Pain (Phase 2, 450 mg (N=48)) | Serious TRAE: Dermatitis allergic (Phase 2, 450 mg (N=48)) | Serious TRAE: Diarrhea (Phase 2, 450 mg (N=48)) | Serious TRAE: Erythema multiforme (Phase 2, 450 mg (N=48)) | Serious TRAE: Pulmonary embolism (Phase 2, 450 mg (N=48))
6.3%: ≥ grade-3 prolonged QT interval with dose reduction (phase 2)
95.8%: patients with at least one TRAE (phase 2)
2 (4.2) No. (%): Serious TEAE: Rash (Phase 2, 450 mg (N=48)) | Serious TRAE: Hypertension (Phase 2, 450 mg (N=48)) | Serious TRAE: Rash (Phase 2, 450 mg (N=48))
1: Grade of cardiac TEAE: sinus bradycardia (Phase 2 study, patient 1 with Grade 3 QTc prolongation) | Grade of cardiac TEAE: Supraventricular extrasystoles [1] | Grade of cardiac TEAE: arhythmia [1] | Grade of cardiac TEAE: sinus bradycardia [1] | Grade of cardiac TEAE: Supraventricular extrasystoles [2] | Grade of cardiac TEAE: nodal tachycardia [2] | Grade of cardiac TEAE: T wave abnormal [3] | Grade of cardiac TEAE: nodal tachycardia [3] | Grade of cardiac TEAE: T wave abnormal [5] | Grade of cardiac TEAE: nodal tachycardia [5] | Grade of cardiac TEAE: nodal tachycardia (Phase 2 study, patient 9 with Grade 3 QTc prolongation)
9 (18.8) No. (%): Serious TRAE: Any (Phase 2, 450 mg (N=48))
0 No. (%): Serious TEAE: Prolonged QT interval (Phase 2, 450 mg (N=48)) | Serious TEAE: Rectal hemorrhage (Phase 2, 450 mg (N=48)) | Serious TEAE: Seizure (Phase 2, 450 mg (N=48)) | Serious TEAE: Sudden cardiac arrest (Phase 2, 450 mg (N=48)) | Serious TEAE: Sudden death (Phase 2, 450 mg (N=48)) | Serious TEAE: Upper respiratory tract infection (Phase 2, 450 mg (N=48)) | Serious TEAE: Ventricular tachycardia (Phase 2, 450 mg (N=48)) | Serious TEAE: Vomiting (Phase 2, 450 mg (N=48)) | Serious TEAE: Weight loss (Phase 2, 450 mg (N=48)) | Serious TRAE: Abdominal distension (Phase 2, 450 mg (N=48)) | Serious TRAE: Acute cholecystitis (Phase 2, 450 mg (N=48)) | Serious TRAE: Acute pancreatitis (Phase 2, 450 mg (N=48)) | Serious TRAE: Anal abscess (Phase 2, 450 mg (N=48)) | Serious TRAE: Aortic intramural hematoma (Phase 2, 450 mg (N=48)) | Serious TRAE: Arrhythmia (Phase 2, 450 mg (N=48)) | Serious TRAE: Blood bilirubin increased (Phase 2, 450 mg (N=48)) | Serious TRAE: Blood creatinine increased (Phase 2, 450 mg (N=48)) | Serious TRAE: COVID-19 (Phase 2, 450 mg (N=48)) | Serious TRAE: Cardiac tamponade (Phase 2, 450 mg (N=48)) | Serious TRAE: Coronary artery atherosclerosis (Phase 2, 450 mg (N=48)) | Serious TRAE: Death (Phase 2, 450 mg (N=48)) | Serious TRAE: Drug eruption (Phase 2, 450 mg (N=48)) | Serious TRAE: Dyspnea (Phase 2, 450 mg (N=48)) | Serious TRAE: Embolism (Phase 2, 450 mg (N=48)) | Serious TRAE: Headache (Phase 2, 450 mg (N=48)) | Serious TRAE: Hemoptysis (Phase 2, 450 mg (N=48)) | Serious TRAE: Hydronephrosis (Phase 2, 450 mg (N=48)) | Serious TRAE: Hypoalbuminemia (Phase 2, 450 mg (N=48)) | Serious TRAE: Intestinal obstruction (Phase 2, 450 mg (N=48)) | Serious TRAE: Intra-abdominal fluid collection (Phase 2, 450 mg (N=48)) | Serious TRAE: Intracranial tumor hemorrhage (Phase 2, 450 mg (N=48)) | Serious TRAE: Liver injury (Phase 2, 450 mg (N=48)) | Serious TRAE: Lung adenocarcinoma (Phase 2, 450 mg (N=48)) | Serious TRAE: Malignant neoplasm progression (Phase 2, 450 mg (N=48)) | Serious TRAE: Multiple organ dysfunction syndrome (Phase 2, 450 mg (N=48)) | Serious TRAE: Nausea (Phase 2, 450 mg (N=48)) | Serious TRAE: Nephrolithiasis (Phase 2, 450 mg (N=48)) | Serious TRAE: Platelet counts decreased (Phase 2, 450 mg (N=48)) | Serious TRAE: Pleural effusion (Phase 2, 450 mg (N=48)) | Serious TRAE: Pneumonia (Phase 2, 450 mg (N=48)) | Serious TRAE: Pneumonitis (Phase 2, 450 mg (N=48)) | Serious TRAE: Prolonged QT interval (Phase 2, 450 mg (N=48)) | Serious TRAE: Pyrexia (Phase 2, 450 mg (N=48)) | Serious TRAE: Rectal hemorrhage (Phase 2, 450 mg (N=48)) | Serious TRAE: Respiratory failure (Phase 2, 450 mg (N=48)) | Serious TRAE: Seizure (Phase 2, 450 mg (N=48)) | Serious TRAE: Septic shock (Phase 2, 450 mg (N=48)) | Serious TRAE: Sudden cardiac arrest (Phase 2, 450 mg (N=48)) | Serious TRAE: Sudden death (Phase 2, 450 mg (N=48)) | Serious TRAE: Upper respiratory tract infection (Phase 2, 450 mg (N=48)) | Serious TRAE: Ventricular tachycardia (Phase 2, 450 mg (N=48)) | Serious TRAE: Vomiting (Phase 2, 450 mg (N=48)) | Serious TRAE: Weight loss (Phase 2, 450 mg (N=48))
12.5%: grade ≥ 3 TEAE diarrhea (phase 2)
2: Grade of cardiac TEAE: cronary arteriosclerosis (Phase 2 study, patient 2 with Grade 3 QTc prolongation) | Grade of cardiac TEAE: ventricular extrasystole [1] | Grade of cardiac TEAE: Ejection fraction reduced [2] | Grade of cardiac TEAE: Left ventricular dysfunction [2] | Grade of cardiac TEAE: Ventricular wall movement diffusky diminshed [2] | Grade of cardiac TEAE: myocardial damage (Phase 2 study, patient 6 with Grade 3 QTc prolongation) | Grade of cardiac TEAE: Supraventricular extrasystoles [4] | Grade of cardiac TEAE: T wave abnormal [4] | Grade of cardiac TEAE: U wave abnormal [4]
39.6%: patients with at least one SAE (phase 2)
